Patent US20070043034A1, “Chlorine Ion Uptake Modulators and Uses Thereof” (priority 2005, published 2007)

Experiments:
[1] = tested on: spontaneous network activity in hippocampal sections; experiment: Spontaneous network activity in P4-8 hippocampal sections (whole-cell and extracellular field recordings); format: cell-based, rat
Method: In another exemplary in vitro method, simultaneous whole-cell voltage-clamp recordings of CA3 pyramidal cells and extracellular field potential recordings in CA3 pyramidal cell layer were performed to analyze the effects of one of the pharmaceutical compositions of the present invention, bumetanide, on spontaneous network activity in the postnatal (P)4-8 hippocampal sections. Spontaneous neuronal network activity is characterized by large polysynaptic currents mediated by activation of GABAA-receptors and synchronous recurrent population bursts, associated with a barrage of high frequency action potentials from multiple cells (FIG. 1C). […] Synchronous network activity reappeared 10-15 min after removal of bumetanide by washing.
In one exemplary method, experimental procedures were carried out on hippocampal slices of postnatal days 5 (P5) to P12 male Wistar rats. Animals were anaesthetized and decapitated and hippocampal slices were prepared by known methods. […]
From the example outlined above, extracellular field potentials were recorded and microelectrodes known in the art were used for simultaneous recordings of multiple unit activity (e.g. MUA; 500 Hz high-pass filter), population field activity in EEG band (1-100 Hz), and fast ripple oscillations (200-600 Hz).).

hypoxia-induced seizures = experiment: Hypoxia-induced seizures in P10 rats; format: in vivo, rat; details: hypoxia 15 min, i.p., Bumetanide 0.15 mg/kg 10 min prior, Phenobarbital 15 mg/kg 30 min prior, versus vehicle
Description: Litters of male Long-Evans hooded rats from Charles River Laboratories (Wilmington, Mass., USA) were used in this study. Each litter was divided into five treatment groups: no hypoxia control, hypoxia/DMSO in PBS, hypoxia/Bumetanide only, hypoxia/Phenobarbital only, and hypoxia/combination of Bumetanide and Phenobarbital. One to two litters were used for each run of the experiment, and each litter was housed together until the weaning age of P21.
Rats at P10 (˜18 to 22 grams) were exposed to global hypoxia for 15 minutes in an airtight chamber into which N2 gas was rapidly infused. The oxygen concentration was maintained at 7% for 8 minutes, 5% for 6 minutes, and 4% for 1 minute before termination of hypoxia, during which the animals were immediately removed from the chamber and exposed to room air. For each animal during hypoxia, a record of the total number of myoclonic seizures and the total number and length of time in seconds of tonic clonic seizures were kept. For analysis purposes, time lengths of each tonic clonic seizure for each animal were pooled to obtain total seizure time. […] The body temperature of all animals was maintained at 34-40° C. on a warming blanket; the temperatures of each animal were also recorded before and after submission to hypoxia. […]

## CCCCNc1cc(C(=O)O)cc(S(N)(=O)=O)c1Oc1ccccc1 [bumetanide, 3-(aminosulfonyl)-5-(butylamino)-4-phenoxybenzoic acid]
[1]; after bumetanide 10 uM
  time until synchronous network activity reappeared after removal by washing: 10 to 15 min
[1]; bath application 10 uM, P4-8 hippocampal sections, n=10
  synchronous bursts of action potentials: rapidly depressed
hypoxia-induced seizures
  average seizing time: did not significantly reduce
